11 molecules from patent publication US10047107B2, “Small molecule analogs of E4orf1” (BOARD OF SUPERVISORS OF LOUISIANA STATE UNIVERSITY AND …, priority 2014, dated 2018) can be followed below.

The test system of the first experiment is 3T3-L1 pre-adipocytes. The experiment can be described thus: Glucose uptake (2-deoxy glucose uptake) by 3T3-L1 pre-adipocytes. The note with it: 5 μM compound, 24 hours exposure, 3T3-L1 pre-adipocytes, basal conditions, without serum starvation, 2-DG uptake. Format: cell-based. Here is the method:
Glucose uptake by 3T3-L1 cells exposed to compounds 1-11 was determined at 5 μM concentration. Cells were exposed to compounds 1-11 for 24 hours and exposure to DMSO was used as the control group. 2-Deoxy glucose (2-DG) uptake was determined using the analog compounds without serum starving the cells prior to determining glucose uptake. Glucose uptake in 3T3-L1 pre-adipocytes was determined by exposing cells to compounds 1-11 for 24 hours without serum starvation. P values presented in the Table indicate statistical significance (p<0.05).
For `N#CC(Nc1ccc([B-](F)(F)F)cc1)c1ccc(O)cc1.[K+]` (centres unmarked) [Example 2, Potassium (4-((cyano(4-hydroxyphenyl)methyl)amino)phenyl)trifluoroborate], the “Percent increase in glucose uptake in comparison to DMSO treated Control” value (“Percent increase in glucose uptake” below) is “No increase”.

On to `COc1cc(C(C#N)Nc2ccc([B-](F)(F)F)cc2)cc(OC)c1OC.[K+]` (centres unmarked) [Example 8, Potassium (4-((cyano(3,4,5-trimethoxyphenyl)methyl)amino)phenyl) trifluoroborate], for which the “Percent increase in glucose uptake” value is 43%.

As to `N#CC(Nc1ccc([B-](F)(F)F)cc1)c1ccc([B-](F)(F)F)cc1.[K+].[K+]` (centres unmarked) [Example 11], the “Percent increase in glucose uptake” value is 53%.

Still in this experiment, the particulars now being: Mus musculus, 3T3-L1, 24 h, read-out: Percent increase in glucose uptake in comparison to DMSO treated Control.
For `N#CC(Nc1ccc([B-](F)(F)F)cc1)c1cccnc1` (centres unmarked) [Example 9, Potassium (4-((cyano(pyridin-3-yl)methyl)amino)phenyl)trifluoroborate], the activation at 5 µM is 54%.

As for `N#CC(Nc1ccc(O)cc1)c1ccc([B-](F)(F)F)cc1` (centres unmarked) [Example 10, Potassium (4-(cyano((4-hydroxyphenyl)amino)methyl)phenyl)trifluoroborate], the activation at 5 µM came out at 31%.

The same experiment, now with this note: Mus musculus; 5 μM compound, 24 hours exposure, 3T3-L1 pre-adipocytes, basal conditions, without serum starvation, 2-DG uptake; read-out: Percent increase in glucose uptake in comparison to DMSO treated Control.
With `CC1(C)OB(c2ccc(NC(C#N)c3ccc(O)cc3)cc2)OC1(C)C` (centres unmarked) [Example 1, 2-(4-hydroxyphenyl)-2-((4-(4,4,5,5-tetramethyl-1,3,2-dioxaborolan-2-yl)phenyl)amino)acetonitrile], the activation at 5 µM amounted to 24%.

Consider `CC1(C)OB(c2ccc(NC(C#N)c3cccnc3)cc2)OC1(C)C` (centres unmarked) [Example 3, 2-(pyridin-3-yl)-2-((4-(4,4,5,5-tetramethyl-1,3,2-dioxaborolan-2-yl)phenyl)amino)acetonitrile], for which the activation at 5 µM was 9%.

`CC1=C(C(C#N)Nc2ccc(B3OC(C)(C)C(C)(C)O3)cc2)C(C)(C)CCC1` (centres unmarked) [Example 4, 2-((4-(4,4,5,5-tetramethyl-1,3,2-dioxaborolan-2-yl)phenyl)amino)-2-(2,6,6-trimethylcyclohex-1-en-1-yl)acetonitrile]: the activation at 5 µM amounted to 33%.

Consider `CC1(C)OB(c2ccc(C(C#N)Nc3ccc(O)cc3)cc2)OC1(C)C` (centres unmarked) [Example 5, 2-((4-hydroxyphenyl)amino)-2-(4-(4,4,5,5-tetramethyl-1,3,2-dioxaborolan-2-yl)phenyl)acetonitrile], for which the activation at 5 µM came out at 73%.

Consider `CC1(C)OB(c2ccc(NC(C#N)c3ccc(B4OC(C)(C)C(C)(C)O4)cc3)cc2)OC1(C)C` (centres unmarked) [Example 6, 2-(4-(4,4,5,5-tetramethyl-1,3,2-dioxaborolan-2-yl)phenyl)-2-((4-(4,4,5,5-tetramethyl-1,3,2-dioxaborolan-2-yl)phenyl)amino)acetonitrile], for which the activation at 5 µM stood at 17%.

On to `COc1cc(C(C#N)Nc2ccc(B3OC(C)(C)C(C)(C)O3)cc2)cc(OC)c1OC` (centres unmarked) [Example 7, 2-((4-(4,4,5,5-tetramethyl-1,3,2-dioxaborolan-2-yl)phenyl)amino)-2-(3,4,5-trimethoxyphenyl)acetonitrile], for which the activation at 5 µM came out at 41%.
